The Ki is the equilibrium dissociation constant of an inhibitor or competing ligand from its target. A higher Ki goes with lower affinity.

The text below walks through data of article PMC3933419, “Synthesis and Properties of a Selective Inhibitor of Homeodomain–Interacting Protein Kinase 2 (HIPK2)” (PLoS ONE, 2014).

Data set [1] has as its target T1, CK2 (Rattus norvegicus, UniProt P19139).
T1 construct: Native CK2 and CK1 were purified from rat liver; from tissue; host or cells: rat liver
Put plainly: CK2 phosphorylation assay. The format is biochemical. The following applies: 20 µM ATP. How it is done:
(§1) Native CK2 and CK1 were purified from rat liver.
(§2) PIM1, CK2, CK1 phosphorylation assays were performed following similar procedures used for HIPK2 except that preincubation was omitted. In detail, PIM1 activity was determined at 100 µM ATP concentration and in the presence of 30 µM synthetic peptide substrate […]. CK2 and CK1 activities were assayed in a buffer containing 50 mM Tris/HCl (pH 7.5), 100 mM NaCl, 12 mM MgCl2, 100 µM specific peptide substrate […] (for CK2), or 200 µM […] (for CK1) and 20 µM [γ-^33P]ATP (500–1000 c.p.m./pmol).

The target of data set [2] is T2, PIM1 (Homo sapiens, UniProt P11309).
T2 construct: The source of HIPK2 and of all of the other protein kinases used for specificity assays is as described elsewhere
T2 sequence (P11309 whole entry, species assumed): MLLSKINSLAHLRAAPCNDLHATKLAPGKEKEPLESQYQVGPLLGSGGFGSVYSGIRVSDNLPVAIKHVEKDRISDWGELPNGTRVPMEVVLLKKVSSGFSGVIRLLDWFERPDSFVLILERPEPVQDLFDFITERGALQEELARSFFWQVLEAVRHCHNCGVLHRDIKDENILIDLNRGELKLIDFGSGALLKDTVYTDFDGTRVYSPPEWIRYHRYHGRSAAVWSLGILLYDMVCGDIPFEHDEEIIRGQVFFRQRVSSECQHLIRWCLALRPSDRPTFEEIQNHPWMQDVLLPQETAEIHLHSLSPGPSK
Put plainly: PIM1 phosphorylation assay. The format is biochemical. To be noted: 100 µM ATP. How it is done: as §2

The subject of data set [3] is CK1. Put plainly: CK1 phosphorylation assay. The format is biochemical, rat. The following applies: 20 µM ATP. The protocol:
as §1, §2

The target in data set [4] is T3, HIPK2 (Homo sapiens, UniProt Q9H2X6).
T3 construct: The source of HIPK2 and of all of the other protein kinases used for specificity assays is as described elsewhere
T3 sequence (Q9H2X6 whole entry): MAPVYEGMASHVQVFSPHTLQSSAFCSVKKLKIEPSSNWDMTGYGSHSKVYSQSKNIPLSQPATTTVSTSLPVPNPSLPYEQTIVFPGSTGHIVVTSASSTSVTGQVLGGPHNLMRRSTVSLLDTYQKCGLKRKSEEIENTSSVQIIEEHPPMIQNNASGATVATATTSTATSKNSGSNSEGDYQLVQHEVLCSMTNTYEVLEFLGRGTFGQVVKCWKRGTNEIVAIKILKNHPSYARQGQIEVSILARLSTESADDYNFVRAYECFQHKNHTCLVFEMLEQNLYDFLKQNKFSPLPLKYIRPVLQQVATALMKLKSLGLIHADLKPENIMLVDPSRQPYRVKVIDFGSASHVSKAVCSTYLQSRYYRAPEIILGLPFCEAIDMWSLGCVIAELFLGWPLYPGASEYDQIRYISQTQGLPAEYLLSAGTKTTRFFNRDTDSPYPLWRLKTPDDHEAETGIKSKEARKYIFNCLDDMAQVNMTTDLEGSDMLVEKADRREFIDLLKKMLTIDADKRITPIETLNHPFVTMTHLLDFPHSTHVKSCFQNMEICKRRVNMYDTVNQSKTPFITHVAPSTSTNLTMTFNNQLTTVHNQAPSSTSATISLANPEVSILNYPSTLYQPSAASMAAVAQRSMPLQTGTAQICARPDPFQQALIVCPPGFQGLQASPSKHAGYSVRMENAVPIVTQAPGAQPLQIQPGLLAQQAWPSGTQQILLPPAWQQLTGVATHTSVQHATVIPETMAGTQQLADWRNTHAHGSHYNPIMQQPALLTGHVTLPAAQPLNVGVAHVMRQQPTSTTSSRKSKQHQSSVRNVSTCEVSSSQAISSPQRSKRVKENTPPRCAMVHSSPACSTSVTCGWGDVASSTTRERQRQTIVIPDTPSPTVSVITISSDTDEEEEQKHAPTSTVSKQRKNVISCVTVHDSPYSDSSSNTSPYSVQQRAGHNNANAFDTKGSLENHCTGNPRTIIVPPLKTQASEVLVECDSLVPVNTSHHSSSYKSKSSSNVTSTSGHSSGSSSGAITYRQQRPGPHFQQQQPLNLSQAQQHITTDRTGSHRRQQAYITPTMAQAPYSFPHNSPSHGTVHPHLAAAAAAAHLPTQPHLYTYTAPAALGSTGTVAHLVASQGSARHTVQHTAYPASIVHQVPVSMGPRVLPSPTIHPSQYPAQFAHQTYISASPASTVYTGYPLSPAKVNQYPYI
Put plainly: Kinetic analysis of HIPK2 inhibition (Lineweaver-Burk). The format is biochemical. The protocol: Initial velocities were determined at each of the ATP concentration tested, at 1 mM […] peptide concentration. Km values were calculated either in the absence or in the presence of increasing concentrations of inhibitor, from Lineweaver-Burk double-reciprocal plots of the data. Inhibition constants were then calculated by linear regression analysis of Km/Vmax versus inhibitor concentration plots.

The subject of data set [5] is panel of 76 protein kinases. Put plainly: Selectivity parameters (Lorenz curve, Gini coefficient, hit rate) of TBID. The format is biochemical. How it is done: (§3) Conditions for the activity assays of all other protein kinases tested in selectivity experiments are as described or referenced in [9].
Lorenz curves were derived from the selectivity data. Gini coefficients and hit rates (expressing the percent of kinases inhibited >50% by a given compound) were calculated as described in [25].

For data set [6], the target named is T4, endogenous HIPK2 (Homo sapiens, UniProt Q9H2X6).
T4 construct: endogenous in cells; host or cells: HepG2
T4 sequence (Q9H2X6 whole entry): as above
Put plainly: Activity of HIPK2 immunoprecipitated from treated HepG2 cells. The format is cell-based. How it is done: (§4) HepG2 cells (human hepatocellular carcinoma) were cultured in Dulbecco's modified Eagle's medium (DMEM; Sigma) supplemented with 10% fetal calf serum, 2 mM L-glutamine, 100 unit/ml penicillin and 100 µg/ml streptomycin; CEM cells (human T lymphoblastoid cells) were cultured n RPMI-1640 (Sigma) with the same supplements. Cells were cultured in an atmosphere containing 5% CO2, at 37°C. Treatments with TBID were performed in the same medium but with 1% fetal calf serum; control cells were treated with the solvent (DMSO). Total cell lysates were prepared as in [29].
Alternatively, HIPK2 was immunoprecipitated with 2.5 µl anti-HIPK2 (Epitomics) from 350 µg of total lysate proteins deriving from HepG2 cells either treated or not with TBID following a protocol elsewhere described. An aspecific antibody was used as negative control. Immunoprecipitated HIPK2 activity was measured towards the specific peptide substrate ([…]) at 1.6 mM concentration, for 10 min at 30°C, under the same conditions described above for the in vitro kinase assay. Peptide radioactivity was measured after sample spotting on phospho-cellulose paper, washing and scintillation counting, as in [30], while the amount of HIPK2 immunoprecipitated was evaluated by WB.

The test system of data set [7] is Ser46 of p53. Put plainly: Phosphorylation of p53 Ser46 in treated CEM cells (WB). The class given is cell-based, human. The following applies: 6 h treatment. The protocol: Treatments with TBID were performed in the same medium but with 1% fetal calf serum; control cells were treated with the solvent (DMSO). Total cell lysates were prepared as in [29].
Endogenous HIPK2 activity was evaluated by measuring the phosphorylation level of its target site Ser46 of p53: to this purpose, CEM cells were treated for 6 h as indicated, then lysed. […] Bands were quantified by Carestream Molecular Imaging Software (Kodak) and the obtained values were normalized to total p53 signal with a Cell Signaling Technology antibody; anti-actin (Sigma) was used as loading control.

For data set [8], the system named is HepG2 or CEM cells. Put plainly: Cell viability (MTT) and PARP cleavage. The class given is cell-based, human. The following applies: 6 h, PARP (Figure 6C). The protocol:
as §4
Cell viability was evaluated by means of MTT (3-(4,5-dimethylthiazol-2-yl)-[…] bromide) reagent; 10^5 cells/100 µl were incubated in a 96-well plate and treated for 6 h as indicated. 1 h before the end of the incubation, 10 µl of MTT solution (5 mg/ml in PBS) was added to each well. Incubations were stopped by addition of 20 µl of lysis solution at pH 4.7, as described elsewhere. Plates were read for OD at λ 590 nm, in a Titertek Multiskan Plus plate reader (Flow Laboratories). Apoptosis was evaluated looking for the cleavage of the caspase substrate PARP with anti-PARP antibody (Roche), recognizing both the full length (116 kDa) and the cleaved fragment (85 kDa) of PARP.

Data set [9] has as its target NEK6 (Homo sapiens, UniProt Q9HC98). Put plainly: Kinase panel selectivity profiling. The class given is biochemical. To be noted: TBID 1 μM, 125 kinase panel, read-out: % activity of the enzyme.
Source text: (§5) The source of HIPK2 and of all of the other protein kinases used for specificity assays is as described elsewhere.
as §3

The target in data set [10] is PIM2 (Homo sapiens, UniProt Q9P1W9). Put plainly: Kinase panel selectivity profiling. The following applies: TBID 1 μM, 125 kinase panel, read-out: % activity of the enzyme. The format is biochemical.
Chain of PIM2 (Q9P1W9 whole entry): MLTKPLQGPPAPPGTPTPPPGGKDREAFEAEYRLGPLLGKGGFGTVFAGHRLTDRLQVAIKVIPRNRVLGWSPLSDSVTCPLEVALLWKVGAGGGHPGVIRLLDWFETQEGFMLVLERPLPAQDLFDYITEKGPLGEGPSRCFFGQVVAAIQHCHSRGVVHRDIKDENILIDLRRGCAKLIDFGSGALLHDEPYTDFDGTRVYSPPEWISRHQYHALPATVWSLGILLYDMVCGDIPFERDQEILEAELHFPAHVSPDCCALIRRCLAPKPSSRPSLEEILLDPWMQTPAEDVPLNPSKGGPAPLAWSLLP
Source text: as §5, §3

Several values for one entry are separate records, joined by “and”; a condition that tells them apart may be missing. Equal values may be shown once.

Chain of NEK6 (Q9HC98 whole entry): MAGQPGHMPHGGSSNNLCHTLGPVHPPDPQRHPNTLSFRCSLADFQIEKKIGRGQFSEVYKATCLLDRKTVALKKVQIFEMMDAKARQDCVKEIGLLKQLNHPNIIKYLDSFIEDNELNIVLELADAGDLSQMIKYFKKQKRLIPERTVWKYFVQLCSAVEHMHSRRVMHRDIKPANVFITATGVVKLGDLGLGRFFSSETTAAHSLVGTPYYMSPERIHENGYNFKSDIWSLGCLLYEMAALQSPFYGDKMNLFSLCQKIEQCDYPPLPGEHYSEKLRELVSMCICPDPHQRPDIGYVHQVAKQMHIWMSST
T1 sequence (P19139 whole entry): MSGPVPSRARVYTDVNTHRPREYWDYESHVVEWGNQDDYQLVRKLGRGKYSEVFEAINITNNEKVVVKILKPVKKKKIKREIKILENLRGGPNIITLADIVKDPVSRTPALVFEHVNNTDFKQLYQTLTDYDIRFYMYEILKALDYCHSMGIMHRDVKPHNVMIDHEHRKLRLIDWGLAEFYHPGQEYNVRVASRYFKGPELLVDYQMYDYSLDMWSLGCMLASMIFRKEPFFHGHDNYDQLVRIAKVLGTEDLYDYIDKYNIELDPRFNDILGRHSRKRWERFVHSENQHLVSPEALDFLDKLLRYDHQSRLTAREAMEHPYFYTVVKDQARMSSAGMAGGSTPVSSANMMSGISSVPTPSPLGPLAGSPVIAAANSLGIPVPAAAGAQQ
T1 sequence (P67874 whole entry partner): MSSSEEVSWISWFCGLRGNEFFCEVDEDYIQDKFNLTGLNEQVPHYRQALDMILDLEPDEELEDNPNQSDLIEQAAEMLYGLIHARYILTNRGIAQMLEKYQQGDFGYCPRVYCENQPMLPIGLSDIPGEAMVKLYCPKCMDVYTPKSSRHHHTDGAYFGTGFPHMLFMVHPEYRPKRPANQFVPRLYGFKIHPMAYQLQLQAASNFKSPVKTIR

For the compound `O=C1c2c(Br)c(Br)c(Br)c(Br)c2C(=O)N1c1ncc[nH]1` [TBID, 4,5,6,7-Tetrabromo-2-(1H-imidazol-2-yl)isoindoline-1,3-dione], the IC50 in [1] was 5.5 µM; in data set [2], above 40 µM; in data set [3] it was above 40 µM; in data set [6] (HIPK2 activity in cells treated with TBID, read-out: IC50 in cells (concentration required for half maximal inhibition)) it was ~50 µM and 50 µM. The compound further showed an inhibition constant (Ki) in [4] of 0.2 µM. In addition, in data set [4] (with respect to ATP), the “mode of inhibition of HIPK2” value was “competitive with respect to ATP”. For the same compound, the “number of kinases inhibited >90%” value in data set [5] (10 µM TBID) amounted to 1. The Gini coefficient in data set [5] (10 µM, 76 PKs) came out at 0.592. This compound also gave a Hit rate in [5] (10 µM, 76 PKs, kinases inhibited >50%) of 0.10. In addition, the “endogenous HIPK2 activity upon cell treatment” value in data set [6] (HepG2 cells, increasing concentrations, immunoprecipitated HIPK2) is given as “reduced in a dose dependent manner”. Moreover, the “phosphorylation level of p53 Ser46” value in data set [7] is “markedly reduces”. The cell toxicity entry in data set [8] was “devoid of cell toxicity”. The activity at 1 µM in data set [9] is 105%; in data set [10] it was 101%.
